The values below come from patent US11311483B2, “Curcumin solubilisate” (AQUANOVA AG, priority 2012, dated 2022).

This series is described as follows: human study: plasma curcumin after a single oral dose of 500 mg curcumin. It counts as in vivo. The conditions noted are these: 24 healthy persons, read-out: curcumin concentration in blood plasma. Here is the method:
The solubilisate according to the invention is further characterized in that the total curcuminoid concentration in human blood plasma, measured one hour after oral administration of 500 mg curcumin in the form of the solubilisate, is approximately 500 ng curcuminoid per ml plasma±100 ng curcuminoid per ml plasma. In contrast, when native curcumin is taken orally in powdered form, only approximately 1.3 ng curcuminoid per ml plasma is achieved after one hour.
The human study on which these values are based was conducted on 24 healthy persons between 19 and 29 years of age, who received a single oral dose of 500 mg native curcumin or curcumin in the form of the solubilisate according to the invention. Blood samples were withdrawn at various times over a period of 24 hours after the curcumin was taken. To minimize the possible concurrent influence of digested food, the test subjects were served standardized meals. One hour after taking the curcumin in native form, less than 1 nmol/l plasma was measured; 8 hours after administration, 2.4 nmol/l was measured; and 24 hours after administration, 2.4 nmol/l was measured. In contrast, for curcumin from the solubilisate according to the invention, one hour after administration, 1,964 nmol/l was measured in the blood plasma; 8 hours after administration, 307.1 nmol/l was measured; and 24 hours after administration, 67.7 nmol/l was measured. A solubilisate containing […] curcumin was used (the commercial product “6% NovaSOL Curcumin” of the applicant).

Molecules are shown by their SMILES.

Regarding `COc1cc(/C=C/C(=O)CC(=O)/C=C/c2ccc(O)c(OC)c2)ccc1O` [native curcumin, Curcumin], the concentration at 8 h (8 hours after single oral dose of 500 mg) came to 2.4 nM. Also, under “24 hours after single oral dose of 500 mg”, the concentration at 24 h was 2.4 nM. For the same compound, the concentration at 1 h (one hour after single oral dose of 500 mg) was under 1 nM.
